Where two headings read alike, the source gives them in different places.
Experiments:
[1] = test system: M. smegmatis ΔglgE mutant; assay: Sensitivity of the M. smegmatis ΔglgE mutant toward mono- and disaccharides (growth on Middlebrook 7H10 agar); assay type: cell-based; conditions: for growth of the mutant: glucose disaccharides
Description: FIG. 2A-2F. Characterization of the M. smegmatis ΔglgE mutant. […] (B). Trehalose sensitivity of the ΔglgE mutant. […] (D) Trehalose sensitivity of the ΔglgB mutant. (E) M1P accumulation in the ΔglgE and ΔglgB mutants determined by TLC/autoradiography analysis of extracts from cells labeled with 14C-trehalose for the indicated time intervals. (F) Maltose accumulation in Δpep2 mutant strains determined by TLC/autoradiography analysis of cell extracts from cells labeled with 14C-trehalose for 30 min. In (B) and (D), equal dilutions of cultures were spotted onto Middlebrook 7H10 agar plates containing trehalose. Comp. refers to mutants complemented with the respective WT genes.
The sensitivity was highly specific, since growth of the mutant was not inhibited by other glucose disaccharides like maltose or α,β-trehalose [α-D-glucopyranosyl-(1→1)-β-D-glucopyranoside].

[2] = target: Mtb GlgE (Mycobacterium tuberculosis, UniProt P9WQ17); assay type: biochemical; conditions: for Km: read-out: Km^app
Chain of Mtb GlgE (P9WQ17 whole entry): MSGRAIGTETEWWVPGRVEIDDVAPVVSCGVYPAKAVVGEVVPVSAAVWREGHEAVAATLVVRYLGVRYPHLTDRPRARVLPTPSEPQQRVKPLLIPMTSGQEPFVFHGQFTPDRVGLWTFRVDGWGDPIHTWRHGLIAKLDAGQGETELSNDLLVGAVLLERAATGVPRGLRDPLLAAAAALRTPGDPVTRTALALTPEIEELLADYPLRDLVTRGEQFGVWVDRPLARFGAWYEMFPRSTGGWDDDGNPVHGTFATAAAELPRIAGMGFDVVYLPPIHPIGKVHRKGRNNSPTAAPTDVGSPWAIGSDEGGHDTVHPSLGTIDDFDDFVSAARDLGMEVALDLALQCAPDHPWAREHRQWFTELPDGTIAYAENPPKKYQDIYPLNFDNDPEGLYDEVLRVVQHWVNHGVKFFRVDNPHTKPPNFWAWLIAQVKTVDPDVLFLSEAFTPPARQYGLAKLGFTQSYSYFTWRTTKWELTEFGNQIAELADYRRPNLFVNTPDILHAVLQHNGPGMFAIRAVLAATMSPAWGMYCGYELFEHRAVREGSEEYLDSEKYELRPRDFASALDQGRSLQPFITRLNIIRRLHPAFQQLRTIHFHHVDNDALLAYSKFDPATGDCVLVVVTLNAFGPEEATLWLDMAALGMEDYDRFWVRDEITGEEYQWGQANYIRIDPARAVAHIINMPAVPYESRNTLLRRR

[3] = test system: Mtb ΔtreS ΔglgE (pMV361::treS); assay type: cell-based, Mycobacterium tuberculosis; conditions: in the presence of 5 mM VA; TLC
[4] = test system: Mtb WT; assay type: cell-based, Mycobacterium tuberculosis
[5] = test system: trehalose synthase TreS; conditions: reference 13; cited from earlier work
[6] = test system: Mtb; conditions: reference 14; cited from earlier work
[7] = test system: M. smegmatis ΔglgB mutant; assay type: cell-based; conditions: to a somewhat smaller extent than ΔglgE
[8] = donor M1P with 1 mM maltohexaose
[9] = acceptor maltohexaose with 1 mM M1P

Compound: OC[C@H]1O[C@H](O[C@H]2[C@H](O)[C@@H](O)C(O)O[C@@H]2CO)[C@H](O)[C@@H](O)[C@@H]1O (mixture of isomers) [maltose]
- growth of the mutant [1]: not inhibited

Compound: O=P(O)(O)O[C@H]1O[C@H](CO)[C@@H](O[C@H]2O[C@H](CO)[C@@H](O)[C@H](O)[C@H]2O)[C@H](O)[C@H]1O [M1P, α-D-glucopyranosyl(1→4)-α-D-glucopyranosyl 1-phosphate]
- kcat^app [2, 8]: 1.26 ± 0.07 s⁻¹
- Km [2, 8]: 0.25 ± 0.05 mM

Compound: OCC1=C[C@@H](N[C@H]2C[C@H](CO)[C@@H](O[C@H]3O[C@@H](CO)[C@H](O)[C@@H](O)[C@@H]3O)[C@H](O)[C@H]2O)[C@H](O)[C@@H](O)[C@@H]1O [VA, Validamycin A]
- M1P accumulation [3]: only low levels
- tolerated concentration of the inhibitor [4]: 10 mM
- inhibition of TreS [5]: inhibit

Compound: O=P(O)(O)O [inorganic phosphate]
- phosphate converted to M1P [2]: ~10%
- Km ([2]; inorganic phosphate, reverse reaction, estimated): 6 ± 4 mM

Compound: NNC(=O)c1ccncc1 [isoniazid]
- 1 mg/l expressed as multiple of the MIC [6]: 20 times the MIC

Compound: OC[C@H]1O[C@H](O[C@H]2O[C@H](CO)[C@@H](O)[C@H](O)[C@H]2O)[C@H](O)[C@@H](O)[C@@H]1O [trehalose, α-D-glucopyranosyl-(1→1)-α-D-glucopyranoside]
- sensitivity of the mutant [7]: sensitive
- concentration that completely inhibited growth [1]: 0.5 mM
- growth of the mutant [1]: bacteriostatic growth arrest

Compound: OC[C@H]1O[C@@H](O[C@H]2O[C@H](CO)[C@@H](O)[C@H](O)[C@H]2O)[C@H](O)[C@@H](O)[C@@H]1O [α,β-trehalose, α-D-glucopyranosyl-(1→1)-β-D-glucopyranoside]
- growth of the mutant [1]: not inhibited

Compound: O=P(O)(O)OC1OC(CO)C(OC2OC(CO)C(O)C(O)C2O)C(O)C1O (stereo not drawn) [β anomer of M1P]
- GlgE activity as donor [2]: no activity

Compound: maltohexaose
- kcat^app [2, 9]: 7.5 ± 0.4 s⁻¹
- Km [2, 9]: 13.3 ± 2.4 mM
- kcat^app ([2]; acceptor maltohexaose with 5 mM M1P): 15.4 ± 1.1 s⁻¹
- Km ([2]; acceptor maltohexaose with 5 mM M1P, pH 7.0, 37° C): 35 ± 8 mM
